{"source": "patent US4588713A", "about": "“Selective biologically active 7-oxo-prostacyclin derivatives and pharmaceutical compositions containing same” (Chinoin Gyogyszer Vegyeszeti Termekek Gyara Rt., priority 1984, dated 1986)", "key": {"[1]": {"test_system": "antiaggregation and hypotensive activity", "experiment": "Selectivity: antiaggregation versus hypotensive activity", "conditions": "for H^1 /H^2: relative anti-aggregation efficiency / relative hypotensive efficiency", "method": "(§1) The selective biological activity of these compounds may be studied by investigating the antiaggregation and hypotensive activity simultaneously. Anti-aggregation activity was measured in vitro according to Born Nature, 214, 927 (1962) on human plasma enriched with thrombocytes in an aggregation induced by […] ADP, whereas the haemodynamic activity was obtained from the blood pressure reducing activity of the compound administered in an i.v. bolus injection to an anaesthetized cat with an open-chest."}, "[2]": {"test_system": "anaesthetized cat with an open-chest", "experiment": "Hypotensive (haemodynamic, blood pressure reducing) activity, i.v. bolus, anaesthetized open-chest cat", "type": "in vivo", "conditions": "for ED50: Felis catus, iv; for relative efficiency H^2 (hypotensive): relative to PGI2-Na = 1", "method": "as §1"}, "[3]": {"test_system": "human plasma enriched with thrombocytes", "experiment": "Anti-aggregation activity in vitro (Born), ADP-induced aggregation", "type": "cell-based", "conditions": "for relative efficiency H^1 (anti-aggregation): relative to PGI2-Na = 1", "method": "as §1"}, "[4]": {"conditions": "background; cited from earlier work"}, "[5]": {"conditions": "i.v. bolus, anaesthetized open-chest cat"}, "[6]": {"conditions": "in vitro, human plasma enriched with thrombocytes, 2 μm ADP"}}, "note": "Entries after “also recorded” stand apart in the source; their conditions may differ. Counter-ions that a name gives are not always drawn."}
{"compound": "CCCCC[C@H](O)/C=C/[C@@H]1[C@H]2C/C(=C/CCCC(=O)O)O[C@H]2C[C@H]1O", "note": "[PGI2 --Na]", "values": [{"measurement": "H^1 /H^2", "setting": "[1]", "value": 1}, {"measurement": "ED50", "setting": "[2]; [5]", "value": 0.16, "unit": "µg/kg"}, {"measurement": "relative efficiency H^2 (hypotensive)", "setting": "[2]", "value": 1}, {"measurement": "IC50", "setting": "[3]; [6]", "value": 1, "unit": "ng/mL"}]}
{"compound": "CCCCC[C@H](O)/C=C/[C@@H]1[C@H]2C/C(=C/CCCC(=O)O)O[C@H]2C[C@H]1O", "note": "[PGI2, Prostacyclin]", "values": [{"measurement": "chemical and biological stability (in words)", "setting": "[4]", "value": "chemical and biological instability"}]}
{"compound": "O=C([O-])CCCC=C1OC2CC(O)C(C=CC(O)C3CCCC3)C2C1=O.[Na+]", "note": "(stereo not shown) [Sodium salt of 7-oxo-16,17,18,19,20-pentanor-15-cyclopentyl-PGI2]", "values": [{"measurement": "selectivity compared with prostacycline and 7-oxo-PGI2 sodium salt (in words)", "setting": "[1]; from H^1/H^2, listed as cyclopentyl analog", "value": "about hundred times more selective than prostacycline; also recorded: considerably more selective than the sodium salt of 7-oxo-PGI2"}, {"measurement": "H^1 /H^2", "setting": "[1]", "value": 83.1}, {"measurement": "hypotensive activity ED50", "setting": "[2]; [5]", "value": 21.2, "unit": "µg/kg"}, {"measurement": "relative efficiency H^2 (hypotensive)", "setting": "[2]", "value": 0.0075}, {"measurement": "anti-aggregation IC50", "setting": "[3]; [6]", "value": 1.6, "unit": "ng/mL"}, {"measurement": "relative efficiency H^1 (anti-aggregation)", "setting": "[3]", "value": 0.625}]}
{"compound": "CCCCC[C@H](O)/C=C/[C@@H]1[C@H]2C(=O)/C(=C/CCCC(=O)O)O[C@H]2C[C@H]1O", "note": "[7-oxo-PGI2 --Na, sodium salt of 7-oxo-PGI2]", "values": [{"measurement": "H^1 /H^2", "setting": "[1]", "value": 2.75}, {"measurement": "ED50", "setting": "[2]; [5]", "value": 6.5, "unit": "µg/kg"}, {"measurement": "relative efficiency H^2 (hypotensive)", "setting": "[2]", "value": 0.024}, {"measurement": "IC50", "setting": "[3]; [6]", "value": 15, "unit": "ng/mL"}, {"measurement": "relative efficiency H^1 (anti-aggregation)", "setting": "[3]", "value": 0.086}]}
